Measured values: PMC11845477, “Exploring the principles behind antibiotics with limited resistance” (Nature Communications, 2025)
Values joined by “and” are separate entries in the source; they are usually repeats but may differ in a detail not shown here. Identical values can stand only once. Where a SMILES comes first, the peptide text is derived from it. Bridges are numbered along the chain shown (N, C = ends). [ ]: non-standard residue; d: D form. The star is where a group is joined. X2 = CC[C@H](C)CCCCC(=O)*; Dab = NCC[C@H](N)C(=O)O

Assays:
E. coli = assay type: cell-based, Escherichia coli; conditions: Escherichia coli; survival at 10xMIC for 4 hours; single replicates, (fig 9a source data); listed as PMB
Method: (§1) We employed image analysis to quantify bacterial survival under fixed antibiotic concentrations (10xMIC for 4 hours) on E. coli, A. baumannii, K. pneumoniae, and P. aeruginosa. […] Survival rate was quantified by calculating the ratio of the viable cells after antibiotic treatment and the total initial viable cell count.
(§2) Fig. 9 Killing kinetics of the studied antibiotics. a Bacterial survival rate in response to toxic antibiotic exposure. […] The bars indicate the survival rate (log10) compared to the untreated initial viable cell count (see “Methods”). Data are presented as mean values of 5 biological replicates ± SEM. The antibiotic group differentiation is denoted by color. […] Survival was estimated by measuring cell viability (colony-forming units/ml) of 2 biologically independent strains following a 4-hour exposure to different concentrations of 16 antibiotics on E. coli ATCC25922 (for further details, see “Methods”). The antibiotic concentration that kills 99.9% of the E. coli population is indicated as a vertical dotted line (see Supplementary Data 5). Error bars represent standard error calculated from the colony counts by Poisson’s model. A Hill function was fitted to the dose-response data from two biological replicates, producing sigmoidal curves (Supplementary Data 5). The Hill coefficient reflects how steeply the survival rate decreases in response to increasing antibiotic concentration ([…]). […] X-axis label colors indicate mode of action groups. For detailed information on antibiotic and bacterial species, see Supplementary Data 1. Source data are provided as a Source Data file.
(§3) In this current study, the killing kinetics of each antibiotic was measured according to a previously established experimental protocol[62] with minor modifications. During this assay, the bacterial cultures were exposed to antibiotics in 96-well assay plates and their viability after 4 hours of exposure was quantified by two methods: i) microplating and colony counting or ii) fluorescent staining of cells and counting of the fluorescent units.
(§4) Specifically, these experiments were performed in the following steps: (1) Preparation of bacterial stocks. Single colonies from each strain were isolated and grown overnight in MHB medium at 37 °C, 160 rpm. In case of the fluorescently tagged E. coli strains, the medium was supplemented with 10 μg/mL chloramphenicol, to maintain the pZS2R plasmid. Overnight cultures were diluted 1:5000 and grown to an optical density at 600 nm (OD600) of 0.25. These cultures were concentrated by centrifugation and small aliquots of 50 μL containing ~2.2 × 10^9 cells were frozen in glycerol (stored at −80 °C). (2) Preparing assay plates with antibiotics. 96-well plates were filled with 235 μL MHB and supplemented with antibiotics using an automated digital dispenser (D300e, Tecan). In the case of SCH79797, we used minimal media. […] For testing the clearance efficacy of each antibiotic at a single lethal dose, the 10x of the MIC for each antibiotic-strain pair were prepared in at least three replicates. (3) Antibiotic exposure. During the dose response assay, frozen cultures of the E. coli strains expressing YFP and mCherry were thawed and mixed at a 1:1 ratio, diluted 1:1000 in 30 mL MHB and incubated for 45 min at 37 °C and 160 rpm. During the single-dose assay, the frozen cultures of experimental strains (E. coli, K. pneumoniae, A. baumannii) were also thawed and diluted 1:1000 in 30 mL MHB and incubated at 37 °C to reach an OD of 0.25 and 160 rpm. Following this incubation phase, these bacterial cultures were then aliquoted into the 96-well deep-well antibiotic plates (15 μL culture; total volume of 250 μL) at an inoculum density of about 10^7 CFU.

A. baumannii = assay: Bacterial survival at 10xMIC for 4 hours; assay type: cell-based, Acinetobacter baumannii; conditions: Acinetobacter baumannii; survival at 10xMIC for 4 hours; single replicates, (fig 9a source data); listed as PMB
Method: as §1, §2, §3, §4

P. aeruginosa = assay type: cell-based, Pseudomonas aeruginosa; conditions: Pseudomonas aeruginosa; survival at 10xMIC for 4 hours; single replicates, (fig 9a source data); listed as PMB
Method: as §1, §2, §3, §4

E. coli ATCC25922 = assay: Dose-response killing curves (99.9% killing concentration, Hill coefficient); assay type: cell-based, Escherichia coli; conditions: dose-response killing curve
Excerpt: as §2
To test the dose range under which resistance can evolve, we employed advanced microplating and automated image analysis. We quantified bacterial population survival at varying antibiotic concentrations[62] (see “Methods”) in E. coli. Briefly, we generated dose-response curves and investigated how steeply the killing effect increases as the antibiotic concentration rises. In specific, the Hill coefficient representing each bacterial strain-antibiotic combination was calculated to quantify dose-kill kinetics.
as §3
as §4, with “rpm.” for “rpm. Following this incubation phase, these bacterial cultures were then aliquoted into the 96-well deep-well antibiotic plates (15 μL culture; total volume of 250 μL) at an inoculum density of about 10^7 CFU.”

CC[C@H](C)CCCCC(=O)N[C@@H](CCN)C(=O)N[C@H](C(=O)N[C@@H](CCN)C(=O)N[C@H]1CCNC(=O)[C@H]([C@@H](C)O)NC(=O)[C@H](CCN)NC(=O)[C@H](CCN)NC(=O)[C@H](CC(C)C)NC(=O)[C@@H](Cc2ccccc2)NC(=O)[C@H](CCN)NC1=O)[C@@H](C)O [Polymyxin B] (X2-[Dab]T[Dab][Dab][Dab][dF]L[Dab][Dab]T; lactam 4-C (inferred); N-terminus assumed)
Survival rate (log10) (E. coli): -4.007 log10 and -4.747 log10 and -3.481 log10
Survival rate (log10) (A. baumannii): -3.38 log10 and -2.762 log10 and -3.033 log10 and -2.9785 log10 and -2.974 log10
Survival rate (log10) (P. aeruginosa): -6 log10 and -3.379 log10
Steepness (Hill Coefficient) (E. coli ATCC25922): 46.82
99.9% killing (10^-3) (E. coli ATCC25922; unit not given): 1.08
